From patent US20240148679A1, “METHODS AND COMPOSITIONS RELATED TO TREATMENT AND PREVENTION OF CANCER BY INHIBITION OF DGAT1 AND DGAT2” (Ohio State Innovation Foundation, priority 2019, published 2024) come the findings set out here.

In series [1] the test system is GBM30-derived subcutaneous model. The experiment in a line: GBM30 subcutaneous xenograft model. The format is in vivo, mice. As to conditions: 120 mg/kg/day. As to the method:
(A-C) The effects of the DGAT1 inhibitor […] (120 mg/kg/day, oral gavage, details in Methods) in U87/EGFRvIII cells (1×10^6 cells/mouse)- or GBM30-derived subcutaneous models (4×10^6 cells/mouse), as shown by tumor growth rate in A and final isolated tumor images and weights in B. Tumor tissues were analyzed for LD presence by IF (TIP47 staining) and CPT1A and cleaved Caspase 3 levels by IHC in C. LD numbers and protein levels in tumor tissues were quantified by ImageJ and averaged from 5 separate areas in each tumor. The results for protein levels were normalized to control tumors (mean±SEM). Statistical significance was determined by one-way ANOVA. * P<0.01 for comparison with control group. Scale bars, m for IF, 40 m for IHC.
It was next examined whether pharmacological inhibition of DGAT1 is effective in inhibiting GBM growth using U87/EGFRvIII and GBM30 xenograft models. Tumor cells were implanted in mice flanks and started treatment with DGAT1 inhibitor A-922500 (120 mg/kg/day) when tumor reached approximately 80 mm3.
(§1) Intracranial xenograft models were generated using female athymic nude (NCr-nu/nu) mice (6-8 weeks of age obtained from OSU Target Validation Shared Resource). U87EGFRvIII (1×10^6) cells infected with shDGAT1-, shDGAT2- or scramble shRNA-expressing lentivirus for 48 hr (suspended in 100 μl PBS) were implanted into mice flank to generate subcutaneous model. For intracranial xenograft model, U87EGFRvIII-luc (1×10^5) or GBM30-luc (1×10^5) cells infected with shDGAT1-, shDGAT2- or scramble shRNA-expressing lentivirus for 48 hours (suspended in 5 μl PBS) were implanted into mouse brains. Mice were observed until they became moribund, at which point they were sacrificed. For drug treatment, U87EGFRvIII (1×10^6 cells suspended in 100 μl PBS) or GBM30 cells (4×10^6 suspended in 100 μl PBS and then mixed with 100 μl matrigel) were implanted in mouse flanks. DGAT1 inhibitor A-922500 (120 mg/kg/day, oral gavage) was formulated by 1% Tween 80 in PBS and administrated to mice when tumor size reached approximately 80 mm^3.

A further series concerns U251 cells. The series is described as follows: Mitochondrial membrane potential (Rhodamine 123). The format is cell-based, human. To be noted: 20 μg/ml, 24 hr. As to the method:
(A, B) Transmission electron microscopy analysis of the mitochondrial structure in U251cells treated with the DGAT1 inhibitor A-922500 (20 μg/ml) or DGAT2 inhibitor PF-06424439 (20 μg/ml) for 24 hr (A) or infected with shRNA-expressing lentivirus against DGAT1 for 48 hr (B). Scale bar, 500 nm. Mitochondria are indicated by arrows. (C) Representative fluorescence images of mitochondria in U251 cells treated with the DGAT1 inhibitor or DGAT2 inhibitor. Mitochondria were stained with MitoTracker Red. LDs were stained with BODIPY 493/503. Nuclei were stained with Hoechst 33342. Scale bar, 10 μm. (D) Representative fluorescence images of mitochondria in GBM cells infected with shRNA-expressing lentivirus against DGAT1 or DGAT2 for 48 hr. Mitochondria were stained with MitoTracker Red. LDs were stained with BODIPY 493/503. Nuclei were stained with Hoechst 33342. Scale bar, 10 μm. (E, F) Representative fluorescence image analysis of mitochondrial membrane potential stained with Rhodamine123 in U251 cells treated with the DGAT1 inhibitor A-922500 (20 μg/ml) for 24 hr or infected with shRNA-expressing lentivirus against DGAT1 for 48 hr. Nuclei were stained with Hoechst 33342. Scale bar, 10 μm. Rhodamine123 staining was quantified by ImageJ software in more than 100 cells. Statistical significance was determined by s t-test for inhibitor treatment or one-way ANOVA for shRNA knockdown. *P<0.0001. […]

Series [2] in a line: Toxicity in treated mice (H&E of organs, body weight). The format is in vivo. To be noted: 120 mg/kg/day; for toxic effects in mouse liver, kidney and spleen (H&E staining): 13 days. As to the method: (A) The H&E staining of the liver, kidney and spleen of mice treated with the DGAT1 inhibitor A922500 (120 mg/kg/day, oral gavage) for 13 days. Scale bar, 50 μm. (B) The body weight of mice treated with vehicle or DGAT1 inhibitor A-922500 (120 mg/kg/day, oral gavage) for 13 days. The mice with DGAT1i treatment lost 8% weight at day 13 treatment compared with the mice weight at day 1.
Paraffin tissue sections were deparaffinized in xylene and rehydrated in degraded ethanol (100%, 95% and 70% ethanol), respectively. After washing with dH2O, slides were stained with hematoxylin and eosin solution in sequence followed by washing with dH2O. Then slides were dehydrated in degraded ethanol and immersed in xylene followed by mounting in Permount.
as §1

SMILES strings stand for the structures. Entries after “also recorded” stand apart in the source; their conditions may differ.

As for `O=C(Nc1ccccc1)Nc1ccc(-c2ccc(C(=O)[C@@H]3CCC[C@H]3C(=O)O)cc2)cc1` [A-922500], in series [1], the “CPT1A expression in tumor tissues” value is “significantly increased CPT1A expression”, the “LD formation in tumor tissues (TIP47)” value is reported as “dramatically suppressed LD formation” and the “cleaved caspase 3 levels in tumor tissues” value is on record as “markedly elevated cleaved caspase 3 levels”. In series [1] (oral gavage), the tumor growth result is recorded as “significantly suppressed tumor growth” and the tumor weight result is “dramatic reduction in tumor weight”. For the same compound, the tumor growth result in series [1] (oral gavage, listed as A-900225) was “dramatically suppresses GBM tumor growth”. Moreover, the mitochondria membrane potential entry with U251 cells is recorded as “significantly reduced”. Moreover, the mice weight decrease result in series [2] (after 13 days, in comparison with vehicle control group) was “about 8%”. In series [2] (oral gavage), the “toxicity in treated mice (overall)” value was “does not induce noticeable toxic effects; also recorded: no obvious toxicity was observed”; the “toxic effects in mouse liver, kidney and spleen (H&E staining)” value is reported as “did not observe any toxic effects”. For the same compound, the “toxic effects in mouse liver, kidney and spleen (H&E staining)” value in series [2] (oral gavage, listed as A922500) is given as “no obvious toxic effects”. The same compound gave a body weight loss in series [2] (oral gavage, day 13 compared with day 1) of 8%.
